Laboratory results from PubChem BioAssay AID1963834 (Molecular Pharmacology Branch, DTP, NCI, 2024).

System: 873145-292-R-J1-PDC complex spheroid viability
Assay: Anticancer human tumor 873145-292-R-J1-PDC patient-derived renal clear cell carcinoma cell line growth inhibition [POLQ]
Conditions: for IC50: curve of first compound; for viability, T/C: stronger effect = lower value
Procedure: Multicellular complex tumor spheroid response to Polymerase (POL) inhibitors (novobiocin, ART-558, RP6685) in combination with a variety of drugs and investigational agents in selected tumor cell lines
The POL inhibitors (novobiocin, ART-558, and RP6685) were evaluated both individually and in combination with standard of care and investigational anticancer small molecules within a complex spheroid model of solid tumors. . Complex spheroids include a stromal component modeled by human endothelial cells (HUVEC) and fibroblasts modeled by human mesenchymal stem cells (MSCs). The concentration ranges selected for each drug and investigational agent were based upon clinically achievable concentrations if the clinical Cmax of the agent was known.
Compounds. The drugs and investigational agents: novobiocin (NSC847541), ART-558 (NSC835418), RP-6685 (NSC848927), peposertib (NSC802822), ceralasertib (NSC780249), elimusertib (NSC800525), camonsertib (NSC841442), AZD-1390 (NSC803789), olaparib (NSC753686), talazoparib (NSC767125), rucaparib (NSC756644), sotorasib (NSC818433), MRTX-1133 (NSC836407), SN-38 (NSC673596), topotecan (NSC609699), epotoside (NSC141540), doxorubicin (NSC123127), gemcitabine (NSC613327), 5-fluorouracil (NSC19893), paclitaxel (NSC125973), vemurafenib (NSC761431), MSA-2 (NSC828583), SN-011 (NSC837082), adavosertib (NSC754352), prexasertib (NSC758257), carboplatin (NSC241240) and oxaliplatin (NSC266046), were obtained from the National Cancer Institute (NCI) Developmental Therapeutics Program Chemical Repository (21). The FDA-approved anticancer drug set is available from the Developmental Therapeutics Program at https://dtp.cancer.gov/organization/dscb/obtaining/. […] The stock solutions were prepared in dimethyl sulfoxide (DMSO, Sigma-Aldrich, St. Louis, MO, cat. D2650), except for the platinum compounds which were prepared in saline (Quality Biological, Gaithersburg, MD, cat. 114-055-101), at 800-fold the tested concentration and stored at -70 degrees C prior to their use. All drugs and investigational agents were tested over a range starting from a high concentration at or near the clinical Cmax and decreasing in half-log increments. If the clinical Cmax for an agent had not been determined, the highest concentration tested was 10 microM, except for SN-38, which was tested at a high concentration of 1 microM.
Cell Culture. All cells were maintained in an incubator at 37 degrees C and 5% CO2 with 95% humidity. The PDC lines were cultured according to standard operating procedures established by the NCI PDMR (https://pdmr.cancer.gov). Table 3 of the manuscript, lists the cell lines along with the number of the three cell types plated to form the mct-spheroids and media for tumor cell growth. After thawing, all PDC lines, except 997537-175-T-J1-PDC and 415267-285-R-J2-PDC, were cultured in Matrigel-coated flasks prepared with a working solution of 1X Ham's F-12 nutrient mix, without supplementation (Thermo Fisher Scientific, cat. 11765054), 100 U/mL penicillin-streptomycin (Thermo Fisher Scientific, cat. 15140122), and 2.5% Matrigel (Corning Inc., Corning, NY, cat. 354248) for the first three passages. The two PDC lines 997537-175-T-J1-PDC and 415267-285-R-J2-PDC were cultured on uncoated flasks. The 857933-349-R-J2-PDC line was cultured in 6C/Colon 1B media containing advanced DMEM/F-12 (Thermo Fisher Scientific, cat. 12634028), 10 mM HEPES (Thermo Fisher Scientific, cat. 15630080), 1X GlutaMAX supplement (Thermo Fisher Scientific, cat. 35050061), 0.1 mg/mL primocin (InvivoGen, San Diego, CA, cat. ant-pm-2), 10% defined fetal bovine serum, heat inactivated (HyClone Laboratories Inc., Logan, UT, cat. SH30070.03HI), 50% L-WRN conditioned media (ATCC, cat. CRL-3276), 1.25 mM N-Acetyl-L-cysteine (Sigma-Aldrich, cat. A9165), 10 mM nicotinamide (Sigma-Aldrich, cat. N0636), 1X B-27 supplement (Thermo Fisher Scientific, cat. 17504044), 1X N-2 supplement (Thermo Fisher Scientific, cat. […]
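Note: spheroids exposed to compounds for 7 days before viability readout.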
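Throughout, for viability, T/C: luminescence signal used as surrogate for viable cell content; 100% = DMSO vehicle control viability.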

C#Cc1c(F)ccc2cc(O)cc(-c3ncc4c(N5CC6CCC(C5)N6)nc(OCC56CCCN5CC(F)C6)nc4c3F)c12 (configuration not stated) + COC1C(OC(N)=O)C(O)C(Oc2ccc3c(O)c(NC(=O)c4ccc(O)c(CC=C(C)C)c4)c(=O)oc3c2C)OC1(C)C
IC50 (second compound 0.0316 µM): > 10 µM | IC50 (second compound 0.1 µM): > 10 µM | IC50 (second compound 0.316 µM): > 10 µM | IC50 (second compound 1 µM): > 10 µM | IC50 (second compound 3.16 µM): > 10 µM | IC50 (second compound 10 µM): > 10 µM | viability, T/C (second compound 0.0316 µM, first compound 0.0316 µM): 97.7% | viability, T/C (second compound 0.0316 µM, first compound 0.1 µM): 92.7% | viability, T/C (second compound 0.0316 µM, first compound 0.316 µM): 95.1% | viability, T/C (second compound 0.0316 µM, first compound 1 µM): 83.9% | viability, T/C (second compound 0.0316 µM, first compound 3.16 µM): 86.5% | viability, T/C (second compound 0.0316 µM, first compound 10 µM): 89.6% | viability, T/C (second compound 0.1 µM, first compound 0.0316 µM): 102% | viability, T/C (second compound 0.1 µM, first compound 0.1 µM): 97.7% | viability, T/C (second compound 0.1 µM, first compound 0.316 µM): 99% | viability, T/C (second compound 0.1 µM, first compound 1 µM): 75.7% | viability, T/C (second compound 0.1 µM, first compound 3.16 µM): 79.6% | viability, T/C (second compound 0.1 µM, first compound 10 µM): 82.7% | viability, T/C (second compound 0.316 µM, first compound 0.0316 µM): 98% | viability, T/C (second compound 0.316 µM, first compound 0.1 µM): 85.7% | viability, T/C (second compound 0.316 µM, first compound 0.316 µM): 82.1% | viability, T/C (second compound 0.316 µM, first compound 1 µM): 77.8% | viability, T/C (second compound 0.316 µM, first compound 3.16 µM): 86.5% | viability, T/C (second compound 0.316 µM, first compound 10 µM): 80.4% | viability, T/C (second compound 1 µM, first compound 0.0316 µM): 94.4% | viability, T/C (second compound 1 µM, first compound 0.1 µM): 97.1% | viability, T/C (second compound 1 µM, first compound 0.316 µM): 99.7% | viability, T/C (second compound 1 µM, first compound 1 µM): 76% | viability, T/C (second compound 1 µM, first compound 3.16 µM): 82.2% | viability, T/C (second compound 1 µM, first compound 10 µM): 88.3% | viability, T/C (second compound 3.16 µM, first compound 0.0316 µM): 92.5% | viability, T/C (second compound 3.16 µM, first compound 0.1 µM): 92.9% | viability, T/C (second compound 3.16 µM, first compound 0.316 µM): 83.4% | viability, T/C (second compound 3.16 µM, first compound 1 µM): 79.3% | viability, T/C (second compound 3.16 µM, first compound 3.16 µM): 86.4% | viability, T/C (second compound 3.16 µM, first compound 10 µM): 84% | viability, T/C (second compound 10 µM, first compound 0.0316 µM): 86.2% | viability, T/C (second compound 10 µM, first compound 0.1 µM): 95.5% | viability, T/C (second compound 10 µM, first compound 0.316 µM): 82.1% | viability, T/C (second compound 10 µM, first compound 1 µM): 86.3% | viability, T/C (second compound 10 µM, first compound 3.16 µM): 86.9% | viability, T/C (second compound 10 µM, first compound 10 µM): 82.1%
